Results on one compound are retold here after US10028956B2, “Methods of treating various cancers using an AXL/cMET inhibitor in combination with other agents” (Ignyta, Inc., priority 2013, dated 2018).

The subject of series [1] is 298 kinases. The series can be described thus: Kinome selectivity against 298 kinases. The class given is biochemical.
Series [2] in a line: PK in rat. As to conditions: in vivo.
In series [3] the test system is EBC-1 Human NSCLC xenografts. In words: Discontinuous and alternate dosing schedules in EBC-1 xenografts. The class given is in vivo, mice. The conditions noted are these: 10 mg/kg oral. The method, then: After a period of 7 days of continuous dosing, animals were then switched to either a 7 day on/7 day off 10 mg/kg qd dosing regimen, or intermittent twice weekly (q2d) or thrice weekly (q3d) oral dosing at a 10 mg/kg qd dose for a total of 21 days.

Series [4] deals with CTG-0157 primary NSCLC human TumorGraft. The series can be described thus: NSCLC TumorGraft model CTG-0157. It counts as in vivo, mice. As to conditions: CTG-0157, 14 days. The method, then: (§1) Methods (for the experiments shown in FIGS. 10 and 11) • Female immunocompromised nu/nu mice (Harlan) between 6-9 weeks of age were housed on irradiated papertwist-enriched ⅛″ corncob bedding (Sheperd) in individual HEPA ventilated cages (Innocage® IVC, Innovive USA) on a 12-hour light-dark cycle at 68-74° F. (20-23° C.) and 30-70% humidity. Animals were fed water ad libitum (reverse osmosis, 2 ppm Cl2) and an irradiated Test rodent diet (Teklad 2919) consisting of 19% protein, 9% fat, and 4% fiber. • Tumor Models: Champions TumorGraft models of NSCLC are owned by Champions Oncology. In this study, animals were implanted unilaterally on the right flank with tumor fragments harvested from host animals. […] Erlotinib (manufacturer: OSI Pharmaceuticals; National Drug Code: 50242-062-01; Lot #: US0002) was formulated using 100% PEG-400 as the vehicle according to manufacturer's specifications.
Efficacy measurements: Beginning Day 0, tumor dimensions were measured twice weekly by digital caliper (Fowler Ultra-Cal IV) and data including individual and mean estimated tumor volumes (Mean TV±SEM) were recorded for each group; tumor volume was calculated using the formula TV=width^2×length×0.52. At study completion, percent tumor growth inhibition (% TGI) values were calculated and reported for each treatment group (T) versus control (C) using initial (i) and final (f) tumor measurements by the formula: % TGI=1−Tf−Ti/Cf−C; single agent or combination therapies resulting in a TGI>50 at study completion are considered active in the tested model at the evaluated treatment regimen according to NCI guidelines. […] If the PR persisted until study completion, percent tumor regression (% TR) was determined using the formula: % TR=1−Tf/Ti×100; a mean value was calculated if multiple PR mice occurred in one group. […] Statistical differences in tumor volume were determined using a two-tailed One-Way Analysis of Variance (ANOVA) followed by the Dunett's multiple comparisons test comparing treated groups with control and combinations with standard agent alone when possible. […]

The test system of series [5] is CTG-0165 erlotinib-insensitive primary NSCLC human TumorGraft. The series can be described thus: NSCLC TumorGraft model CTG-0165. It counts as in vivo, mice. As to conditions: for % Tumor Growth Inhibition: CTG-0165, 37 days. The method, then:
as §1
Efficacy measurements: Beginning Day 0, tumor dimensions were measured twice weekly by digital caliper (Fowler Ultra-Cal IV) and data including individual and mean estimated tumor volumes (Mean TV±SEM) were recorded for each group; tumor volume was calculated using the formula TV=width^2×length×0.52. At study completion, percent tumor growth inhibition (% TGI) values were calculated and reported for each treatment group (T) versus control (C) using initial (i) and final (f) tumor measurements by the formula: % TGI=1−Tf−Ti/Cf−C; single agent or combination therapies resulting in a TGI>50 at study completion are considered active in the tested model at the evaluated treatment regimen according to NCI guidelines. Individual mice reporting a tumor volume ≤50% of the Day 0 measurement for two consecutive measurements over a seven day period were considered partial responders (PR). If the PR persisted until study completion, percent tumor regression (% TR) was determined using the formula: % TR=1−Tf/Ti×100; a mean value was calculated if multiple PR mice occurred in one group. Individual mice lacking palpable tumors (<4×4 mm^2 for two consecutive measurements over a seven day period) were classified as complete responders (CR); a CR that persisted until study completion was considered a tumor-free survivor (TFS). TFS animals are excluded from efficacy calculations. Statistical differences in tumor volume were determined using a two-tailed One-Way Analysis of Variance (ANOVA) followed by the Dunett's multiple comparisons test comparing treated groups with control and combinations with standard agent alone when possible. All data collected in this study was managed electronically and stored on a redundant server system.

[6] abbreviates: intravenous, 1 mg/kg i.v. and 3 mg/kg p.o.

Each structure is given as a SMILES string. Marks after values point to notes of the source that are not given here.

By Cmax is commonly meant the peak of the concentration-time curve. By bioavailability is commonly meant dose-corrected exposure relative to a reference, in per cent. Read a high bioavailability as good availability. In general, AUC(0-t) refers to the area under the concentration-time curve up to a stated or last time point. Lower therefore signals less exposure. With `COc1cc2nccc(Oc3ccc(NC(=O)c4cn(C(C)C)c(=O)n(-c5ccc(F)cc5)c4=O)cc3F)c2cc1OC` [CEP-40783, 3-(4-Fluorophenyl)-1-isopropyl-2,4-dioxo-1,2,3,4-tetrahydropyrimidine-5-carboxylic acid [4-(6,7-dimethoxyquinolin-4-yloxy)-3-fluorophenyl]-amide], in series [1], the “S90 (fraction of kinases showing >90% inhibition at 1 μM)” value was found to be 0.04. Besides, in series [2] (1 mg/kg i.v. and 3 mg/kg p.o.), the Cmax was found to be 593 ng/mL. Also, in series [2] (setting [6]), the Vd worked out at 2.6 L/kg. Also, in series [2] (setting [6]), the clearance was 1.4 mL/min/kg. The half-life in series [2] (iv, 1 mg/kg i.v., read-out: t1/2 i.v. (converted)) was 21.5 h. This compound also displayed a bioavailability in series [2] (oral, 1 mg/kg i.v. and 3 mg/kg p.o.) of 57%. The compound further returned an exposure AUC(0-t) in series [2] (po, 3 mg/kg p.o.) of 16300 ng·h/mL. Also, the partial responses in series [3] (every 2 days (q2d)) is reported as 40%; in series [3] (every 3 days (q3d)), 70%; in series [3] (qd, 7 days on/7 days off (qd×7)), 40%. In addition, the “complete tumor regressions, % of animals” value in series [3] (q2d dosing group) worked out at 20%; in series [3] (qd×7 dosing group), 10%. The “% Tumor Growth Inhibition” value in series [4] (10 mg/kg po/qd) was found to be 3%; in series [4] (30 mg/kg po/qd) it was 85%*†; in series [5] (10 mg/kg po/qd) it was 116%*†; in series [5] (30 mg/kg po/qd), 118%*†. Moreover, in series [5] (CTG-0165, oral 10 mg/kg and 30 mg/kg), the “efficacy in erlotinib-insensitive TumorGraft” value is recorded as “tumor regressions”.
